Test results reported in patent publication EP4556465A1, “NOVEL BICYCLIC PD-L1 INHIBITORS, PREPARATION METHODS THEREFOR AND MEDICINAL USES THEREOF” (priority 2022, dated 2024).
pIC50: −log10 of the molar value.

Legend:
hPD-1/hPD-L1 = target: T1, hPD-1/hPD-L1 (Homo sapiens, UniProt Q9NZQ7); assay: PD-1/PD-L1 binding assay kit (CISBIO), HTRF assay of PD-1/PD-L1 protein-protein interaction; details: for inhibitory activity of PD-1/PD-L1 protein-protein interaction compared with BMS-202: HTRF, comparison with BMS-202
T1 construct: purchased CISBIO
T1 sequence (Q9NZQ7 19-238 limits assumed): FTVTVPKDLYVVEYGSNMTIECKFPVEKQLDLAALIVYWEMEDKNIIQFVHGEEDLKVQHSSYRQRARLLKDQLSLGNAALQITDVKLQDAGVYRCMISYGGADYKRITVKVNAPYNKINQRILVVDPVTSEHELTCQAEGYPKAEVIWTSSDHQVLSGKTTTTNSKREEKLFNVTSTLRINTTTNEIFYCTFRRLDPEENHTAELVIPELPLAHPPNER
Description: Experimental objective: the activity of the compounds of formula (I) to inhibit the PD-1/PD-L1 interaction was tested by using a PD-1/PD-L1 binding assay kit (CISBIO).
Experimental principle: HTRF (Homogeneous Time-Resolved Fluorescence) is a technique used to detect substances to be tested in pure liquid phase systems. It primarily utilizes energy transfer of two fluorescent groups, which are divided into an energy donor europium (Eu^+) and an energy acceptor. When the donor is externally excited (e.g., a flash lamp or laser), the energy can be resonantly transferred to the acceptor if the donor is close enough to the acceptor, and the acceptor is excited at a specific wavelength. By using the HTRF technology, the assay enables simple and rapid characterization of compounds and antibody blockers in a high-throughput format. By using anti-Tag1 labeled with Eu^+ (Europium) (the HTRF energy donor) and anti-Tag2 labeled with XL665 (the HTRF energy acceptor), the interaction between PD-L1 and PD-1 can be detected. PD-L1 protein and PD-1 protein are labeled with Tag1 and Tag2, respectively, and Eu^+ and XL665 bind to PD-L1 and PD-1, respectively, through antibodies to form complexes. […] This specific signal is directly proportional to the degree of PD1/PD-L1 interaction.
Experimental materials: kit: PD-1/PD-L1 binding assay kits purchased from CISBIO; and 96-well plate: purchased from CISBIO.
Test instrument: Perkin Elmer, model: EnVision.
Test compounds: the compounds in formula (I).
Experimental procedure: PD-1/PD-L1 binding assay kits were used. […] The plates were sealed by using microplate sealers, centrifuging was performed at 1000 rpm for 1 min, and incubation was performed at room temperature for 15 min. The Anti-Tag-Eu^3+ and Anti-tag-XL665 which were diluted with Buffer were then mixed in equal volumes, then 10 µL of the mixed solution was added to each well, the sealed plates were centrifuged at 1000 rpm for 1 min, and incubation was performed at room temperature for 2 h. […] IC50 of the compounds was calculated by using Graphpad.

[1] = Acute toxicity test, single oral gavage; assay type: in vivo; details: both sexes, rat, in vivo, po, SD rats, read-out: maximum tolerated dose (MTD)
Description: • Animal species and number: SD rats; 6 rats in each group (half male and half female); Mode of administration: oral gavage; […]; • Administration frequency: administration once.
Side-cage observation on the day of administration (D1): frequency and time of observation: side-cage observation of acute toxicity reactions was performed for 4 h after administration of animals in each group, and detailed clinical observations were performed on animals with apparent abnormal manifestations. Mortality, morbidity, respiration, secretion, feces, and diet, water drinking, etc. were observed, and changes in body weight of rats during administration were recorded. Detailed clinical observations include, but are not limited to, behavioral activities, skin, hair, eyes, ears, noses, abdomens, external genitalia, anuses, limbs, feet, and breathing. The animals in each group were euthanized at the end of the observation period, and all animals were dissected and gross observed.

Compound	pIC50 (hPD-1/hPD-L1)	inhibitory activity of PD-1/PD-L1 protein-protein interaction compared with BMS-202 (hPD-1/hPD-L1)	MTD [1] [mg/kg]
Cc1c(-c2ccc3c(c2)CN(CC(=O)O)C3=O)cccc1-c1ccccc1F [I-A-4, 2-(5-(2'-Fluoro-2-methyl-[1,1'-biphenyl]-3-yl)-1-oxoisoindolin-2-yl)acetic acid]	< 6.00	–	–
Cc1c(-c2ccc3c(c2)CN(CCC(=O)O)C3=O)cccc1-c1ccccc1F [I-A-5, 3-(5-(2'-Fluoro-2-methyl-[1,1'-biphenyl]-3-yl)-1-oxoisoindolin-2-yl)propanoic acid]	< 6.00	–	–
Cc1c(-c2ccc3c(c2)CN(C(C)C(=O)O)C3=O)cccc1-c1ccccc1F (stereo not shown) [I-A-6, 2-(5-(2'-Fluoro-2-methyl-[1,1'-biphenyl]-3-yl)-1-oxoisoindolin-2-yl)propanoic acid]	< 6.00	–	–
Cc1c(-c2ccc3c(c2)CN(CCO)C3=O)cccc1-c1ccccc1F [I-A-7, 5-(2'-Fluoro-2-methyl-[1,1'-biphenyl]-3-yl)-2-(2-hydroxyethyl)isoindo 1-1-one]	6.00 to 7.15	–	–
Cc1c(-c2ccc3c(c2)CN(CC(N)=O)C3=O)cccc1-c1ccccc1F [I-A-8, 2-(5-(2'-Fluoro-2-methyl-[1,1'-biphenyl]-3-yl)-1-oxoisoindolin-2-yl)acetamide]	6.00 to 7.15	–	–
Cc1c(-c2ccc3c(c2)CN(CCO)C3)cccc1-c1ccccc1F [I-A-9, 2-(5-(2'-Fluoro-2-methyl-[1,1'-biphenyl]-3-yl)isoindolin-2-yl)ethan-1-ol]	7.96	superior to that of the compound BMS-202	–
Cc1c(-c2ccc3c(n2)CCN(CC(=O)O)C3)cccc1-c1ccccc1F [I-B-2, 2-(2-(2'-Fluoro-2-methyl-[1,1'-biphenyl]-3-yl)-7,8-dihydro-1,6-naphthyridin-6(5H)-yl)acetic acid]	7.72	superior to that of the compound BMS-202	–
Cc1c(-c2ccc3c(n2)CCN(CCO)C3)cccc1-c1ccccc1F [I-B-3, 2-(2-(2'-Fluoro-2-methyl-[1,1'-biphenyl]-3-yl)-7,8-dihydro-1,6-naphthyridin-6(5H)-yl)ethan-1-ol]	6.00 to 7.15	–	–
Cc1c(COc2ccc3c(n2)CCN(CC(=O)O)C3)cccc1-c1ccccc1F [I-D-13, 2-(2-((2'-fluoro-2-methyl-[1,1'-biphenyl]-3-yl)methoxy)-7,8-dihydro-1,6-naphthyridin-6(5H)-yl)acetic acid]	7.64	superior to that of the compound BMS-202	–
Cc1c(COc2ccc3c(n2)CCN(CCO)C3)cccc1-c1ccccc1F [I-D-14, 2-(2-((2'-fluoro-2-methyl-[1,1'-biphenyl]-3-yl)methoxy)-7,8-dihydro-1,6-naphthyridin-6(5H)-yl)ethan-1-ol]	7.80	superior to that of the compound BMS-202	–
Cc1ccccc1-c1cccc(COc2ccc3c(n2)CCN(CCO)C3)c1C [I-D-15, 2-(2-((2,2'-dimethyl-[1,1'-biphenyl]-3-yl)methoxy)-7,8-dihydro-1,6-naphthyridin-6(5H)-yl)ethan-1-ol]	6.00 to 7.15	–	–
Cc1c(COc2ccc3c(n2)CCN(CCO)C3)cccc1-c1ccccc1Cl [I-D-16, 2-(2-((2'-chloro-2-methyl-[1,1'-biphenyl]-3-yl)methoxy)-7,8-dihydro-1,6-naphthyridin-6(5H)-yl)ethan-1-ol]	6.00 to 7.15	–	–
Cc1c(COc2ccc3c(n2)CCN(CCO)C3)cccc1-c1ccccc1 [I-D-17, 2-(2-((2-methyl-[1,1'-biphenyl]-3-yl)methoxy)-7,8-dihydro-1,6-naphthyridin-6(5H)-yl)ethan-1-ol]	6.00 to 7.15	–	–
Cc1ccccc1-c1cccc(COc2ccc3c(n2)CCN(CCO)C3)c1Cl [I-D-19, 2-(2-((2-chloro-2'-methyl-[1,1'-biphenyl]-3-yl)methoxy)-7,8-dihydro-1,6-naphthyridin-6(5H)-yl)ethan-1-ol]	7.70	superior to that of the compound BMS-202	–
OCCN1CCc2nc(OCc3cccc(-c4ccccc4Cl)c3Cl)ccc2C1 [I-D-20, 2-(2-((2,2'-dichloro-[1,1'-biphenyl]-3-yl)methoxy)-7,8-dihydro-1,6-naphthyridin-6(5H)-yl)ethan-1-ol]	6.00 to 7.15	–	–
OCCN1CCc2nc(OCc3cccc(-c4ccccc4)c3Cl)ccc2C1 [I-D-21, 2-(2-((2-chloro-[1,1'-biphenyl]-3-yl)methoxy)-7,8-dihydro-1,6-naphthyridin-6(5H)-yl)ethan-1-ol]	7.51	superior to that of the compound BMS-202	–
OCCN1CCc2nc(OCc3cccc(-c4ccccc4F)c3F)ccc2C1 [I-D-22, 2-(2-((2,2'-difluoro-[1,1'-biphenyl]-3-yl)methoxy)-7,8-dihydro-1,6-naphthyridin-6(5H)-yl)ethan-1-ol]	7.98	superior to that of the compound BMS-202	–
Cc1ccccc1-c1cccc(COc2ccc3c(n2)CCN(CCO)C3)c1F [I-D-23, 2-(2-((2-fluoro-2'-methyl-[1,1'-biphenyl]-3-yl)methoxy)-7,8-dihydro-1,6-naphthyridin-6(5H)-yl)ethan-1-ol]	6.00 to 7.15	–	–
OCCN1CCc2nc(OCc3cccc(-c4ccccc4Cl)c3F)ccc2C1 [I-D-24, 2-(2-((2'-chloro-2-fluoro-[1,1'-biphenyl]-3-yl)methoxy)-7,8-dihydro-1,6-naphthyridin-6(5H)-yl)ethan-1-ol]	6.00 to 7.15	–	≥ 2000
OCCN1CCc2nc(OCc3cccc(-c4ccccc4)c3F)ccc2C1 [I-D-25, 2-(2-((2-fluoro-[1,1'-biphenyl]-3-yl)methoxy)-7,8-dihydro-1,6-naphthyridin-6(5H)-yl)ethan-1-ol]	6.00 to 7.15	–	–
O=CCN1CCc2nc(OCc3cccc(-c4ccccc4F)c3Cl)ccc2C1 [I-D-28, 2-(2-((2-chloro-2'-fluoro-[1,1'-biphenyl]-3-yl)methoxy)-7,8-dihydro-1,6-naphthyridin-6(5H)-yl)acetaldehyde]	7.62	superior to that of the compound BMS-202	–
O=C(O)CN1CCc2nc(OCc3cccc(-c4ccccc4F)c3)ccc2C1 [I-D-30, 2-(2-((2'-fluoro-[1,1'-biphenyl]-3-yl)methoxy)-7,8-dihydro-1,6-naphthyridin-6(5H)-yl)acetic acid]	7.87	superior to that of the compound BMS-202	–
Cc1c(COc2ccc3c(n2)N(C)CN(CC(=O)O)C3)cccc1-c1cccc(OCCCN2CC[C@@H](O)C2)c1C [I-E-4, (R)-2-(7-((3'-(3-(3-hydroxypyrrolidin-1-yl)propoxy)-2,2'-dimethyl-[1,1'-biphenyl]-3-yl)methoxy)-1-methyl-1,4-dihydropyrido[2,3-d]pyrimidin-3(2H)-yl)acetic acid]	7.23	superior to that of the compound BMS-202	–
